Patent US20250020635A1, “ASSAY METHODS AND USES THEREOF FOR SCREENING ALZHEIMER'S DISEASE TREATMENT COMPOUNDS” (priority 2023, published 2025)
Like-named read-outs stand apart in the source and are kept apart here.

Key:
[1] = biological target: T1, His-PLCγ2 protein (Homo sapiens, UniProt P16885); experiment: Affinity selection mass spectrometry (ASMS); assay type: binding; settings: dose range 100-0.05 μM, PLCγ2 400 nM
T1 sequence (P16885 1-1265): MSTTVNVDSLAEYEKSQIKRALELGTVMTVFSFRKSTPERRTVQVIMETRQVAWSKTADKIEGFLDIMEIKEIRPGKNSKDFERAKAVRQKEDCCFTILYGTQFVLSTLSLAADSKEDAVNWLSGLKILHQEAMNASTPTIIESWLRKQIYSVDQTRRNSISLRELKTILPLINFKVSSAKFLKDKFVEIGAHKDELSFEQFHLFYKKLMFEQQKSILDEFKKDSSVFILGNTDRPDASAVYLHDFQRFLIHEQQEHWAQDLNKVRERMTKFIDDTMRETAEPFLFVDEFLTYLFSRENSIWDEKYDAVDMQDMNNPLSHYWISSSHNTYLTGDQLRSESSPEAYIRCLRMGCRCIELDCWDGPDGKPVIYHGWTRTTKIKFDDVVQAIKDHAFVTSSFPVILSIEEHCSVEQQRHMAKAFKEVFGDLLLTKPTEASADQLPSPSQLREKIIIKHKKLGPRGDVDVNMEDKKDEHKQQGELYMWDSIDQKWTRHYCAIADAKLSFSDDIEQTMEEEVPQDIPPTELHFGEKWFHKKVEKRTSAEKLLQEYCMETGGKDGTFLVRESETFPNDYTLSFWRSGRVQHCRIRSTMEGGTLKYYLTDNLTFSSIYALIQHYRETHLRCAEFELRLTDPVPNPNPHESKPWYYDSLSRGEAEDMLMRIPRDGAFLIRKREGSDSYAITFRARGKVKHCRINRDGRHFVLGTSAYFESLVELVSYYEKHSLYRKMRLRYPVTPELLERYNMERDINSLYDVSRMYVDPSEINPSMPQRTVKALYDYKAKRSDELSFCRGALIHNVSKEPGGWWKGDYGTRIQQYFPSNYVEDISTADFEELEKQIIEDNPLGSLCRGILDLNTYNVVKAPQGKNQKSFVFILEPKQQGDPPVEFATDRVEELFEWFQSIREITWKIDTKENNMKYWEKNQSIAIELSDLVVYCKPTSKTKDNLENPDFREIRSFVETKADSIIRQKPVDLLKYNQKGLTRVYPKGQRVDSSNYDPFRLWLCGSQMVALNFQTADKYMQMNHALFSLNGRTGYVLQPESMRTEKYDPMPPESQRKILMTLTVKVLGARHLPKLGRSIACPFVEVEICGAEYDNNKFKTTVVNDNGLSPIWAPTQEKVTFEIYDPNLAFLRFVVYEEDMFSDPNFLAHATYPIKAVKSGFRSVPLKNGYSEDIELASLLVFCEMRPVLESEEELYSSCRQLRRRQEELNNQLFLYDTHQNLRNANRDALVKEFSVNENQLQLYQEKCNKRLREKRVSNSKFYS
Description: Using a dose range of 100-0.05 μM in 384 well low-volume polypropylene microtiter plates, a solution of PLCγ2 (final concentration 400 nM) was transferred to biochip arrays functionalized with a Tris-Ni-NTA-presenting self-assembled monolayer to immobilize the His-tagged protein. The arrays were incubated for 90 min in a humidified chamber to prevent evaporation and allow for specific immobilization of the His-PLCγ2 protein, along with any bound small molecules. The arrays were purified by a rapid <3 second gentle wash step with deionized ultra-filtered water and dried with compressed air. ASMS was performed using the reflector positive mode on an Aβ Sciex TOF-TOF 5800 System (Aβ Sciex, Framingham, MA).

[2] = Protein binding in mouse plasma; assay type: in vitro ADME
Description: (§1) Physicochemical and ADME properties were determined using the following assays: microsomal stability intrinsic clearance (Clint) in mouse liver microsomal solution, MDCK permeability (Papp), protein binding (fu) in mouse plasma, and kinetic solubility in pH 7.4 phosphate buffer (Table 7).

[3] = system: HMC3 cells; experiment: Microglial phagocytosis/cell health high-content assay, HMC3 cells; assay type: cell-based; settings: 60 μM, 48 hrs, compared to control
Description: (§2) The assay introduced here is a simplified cellular imaging assay without any fixation and washing steps, while producing multiparameter measurements with high capacity using a 384-well plate format. The assay procedures include plating cells on day 1, incubating cell plates overnight before treating cells on day 2, adding pHrodo™-myelin/membrane debris to cell plates on day 3, and 20 hr later, staining cell nuclei with Hoechst-33342 for 30 min before performing high-content imaging on day 4. Three selected parameters are measured from cells: 1) mean total fluorescence intensity per cell of pHrodo™-myelin/membrane debris in phagocytosis vesicles to quantify phagocytosis; 2) cell counts per well to quantify treatment effects on proliferation and cell death; and 3) average nuclear intensity to quantify treatment-induced nuclear changes such as in apoptosis. The assay has been used on HMC3 cells (an immortalized human microglial cell line), BV2 cells (an immortalized mouse microglial cell line), and primary microglia isolated from mouse brains. For initial assay attempts, we recommend using HMC3 cells available from the ATCC.
(§3) All collected raw data are normalized to the untreated control with following formula: % of control=100×(X−Min)/(Max−Min). Factors in the formula are: X is raw data from a treated well, Max is an average measurement from pHrodo™-myelin seeded but untreated wells, and Min is an average measurement from no pHrodo™-myelin untreated wells. Normalized data are used for curve fitting that is done with the variable slope (four parameters) using the Prism software.
(§4) To ensure that the measurements reflect the steady state of compound treatment effects and cell health, the assay was set with a total compound treatment time of 48 hr, including pHrodo™-myelin/membrane debris seeding performed 20-24 hr after compound addition. […] Among many available quantitative measurements from the image analysis, we selected three parameters for the assay:
(§5) 1) The mean total intensity of phagocytosis vesicles/cell—to measure phagocytosis. There are multiple parameters generated from the image analysis, including phagocytosis vesicle area, number, and various fluorescence intensity measurements. Comparing these parameters, the total fluorescence intensity of vesicles/cell is the most sensitive one and was chosen for quantifying phagocytosis.
(§6) 2) The total cell counts—to measure overall cell viability, which is affected by proliferation and cell death. We chose to take 4 images/well (with the 10× objective lens) that cover about 50% of the total area of a well in a 384-well plate to represent cell count of the well.
(§7) 3) The average nuclear intensity—to measure drug-induced apoptosis, with high signal indicating nuclear condescension (a sign of early apoptosis) and low signal indicating DNA degradation (a sign of later apoptosis, when activated caspases digest DNA).
(§8) A phenotypic high-content imaging assay with simultaneous measurements of phagocytosis, cell number, and nuclear intensity was used to assess both cellular pharmacology and cell health. Model cell lines BV2 (immortalized mouse microglia, a gift from Dr. Michelle Block's laboratory at IUSM) and HMC3 (immortalized human microglia, obtained from ATCC, CRL-3304) were used to provide adequate throughput. Cells were cultured in DMEM GlutaMax media (ThermoFisher) containing 10% FBS and Pen-Strep in a 37° C. 5% CO2 incubator, plated in Corning Falcon 384 well Optilux Black and clear bottom plates: 400 cells/45 μl/well (BV2 cells), 600 cells/45 μl/well (HMC3 cells) and 2000 cell/45 μl/well (primary cells), and treated with 10× serially diluted compounds (60 μM-3 nM) for 48 hrs at 37° C. […]

[4] = Kinetic solubility in pH 7.4 phosphate buffer; assay type: physicochemical
Description: as §1

[5] = system: BV2 cells; experiment: Microglial phagocytosis/cell health high-content assay, BV2 cells; assay type: cell-based; settings: 60 μM, 48 hrs, compared to control
Description: as §2, §3, §4, §5, §6, §7, §8

[6] = biological target: T2, PLCγ2-HiBit (Homo sapiens, UniProt P16885); experiment: Cellular thermal shift assay (SplitLuc CETSA), PLCγ2-HiBit in HMC3 cells; assay type: cell-based; settings: for PLCγ2-HiBit %, percent luminescence at highest dose compared to control (DMSO): 100 μM; for PLCy2-HiBit % @100: Table 1
T2 construct: expressed in transfected cells; host or cells: HMC3 cells
T2 sequence (P16885 1-1265): T1 sequence (P16885 1-1265)
Source text: These compounds have been evaluated using a wide variety of assay classes namely target engagement utilizing cellular thermal shift assay (CETSA),^34 affinity selection mass spectrometry (ASMS),^35 biochemical activity employing the fluorogenic probe XY-69,^36 and cellular activity testing for phagocytosis. Cellular Thermal Shift Assays (CETSA) assess cellular target engagement by quantifying changes in protein thermal stability upon ligand binding to endogenous proteins in intact cells.^34 For SAR studies, a split Nano Luciferase (SplitLuc CETSA) version of the assay was utilized to provide sufficient throughput.^37,38 HMC3 cells were stably transfected with PLCγ2-HiBit to enable protein expression in a physiologically relevant cellular context. The thermal stability of this HiBit-labeled protein in intact cells was measured in the following two formats. In the initial screen, using 96-well plates, cells were treated with FBS analogs at a single concentration (100 μM) at 37° C. for 60 min and then exposed to a 3-minute isothermal heating step at 45.9° C. (experimentally determined Tm of PLCγ2-HiBit). Luminescence detection was then conducted with the Nano-Glo HiBit Lytic detection kit (Promega, Cat. N3040).^38 Compound treatment was performed in triplicate, and raw signals were normalized to the mean of the controls (in the same plate) as % of control. When the difference in compound-treated cells >control mean+3SD, the compound was considered positive and selected for further testing with dose-response CETSA. In the dose response CETSA, cells were treated with decreasing concentrations from 100 μM with 1:3 serial dilutions to generate an 8-point curve. An AC50 was calculated with the % of control data using a four-parameter logistic curve regression model, and the percent luminescence remaining at the highest concentration is also reported for the compounds when the difference from the DMSO control is greater than 3× the standard deviation (SD). Otherwise, an AC50 was not calculated.

[7] = system: MDCK; experiment: MDCK permeability; assay type: in vitro ADME; settings: estimate of intestinal absorption
Description: as §1

[8] = Microsomal stability intrinsic clearance; assay type: in vitro ADME; settings: mouse liver microsomes
Description: as §1

[9] = system: HiBit only; experiment: Cellular thermal shift assay (CETSA), HiBit only control; assay type: cell-based, human
[10] = system: HMC3 cells; experiment: Microglial phagocytosis/cell health high-content assay, HMC3 cells; assay type: cell-based; settings: 24-hr treatment

target engagement, signal against background [1]	Compound	fu, fraction unbound [2]	Ave. % Cell Count @ 60 uM HMC3 cells [3] [%]	Ave. % Phagocytosis @ 60 uM HMC3 cells [3] [%]	Kinetic solubility [4] [µM]	Ave. % Cell Count @ 60 uM BV2 cells [5] [%]	Ave. % Phagocytosis @ 60 uM BV2 cells [5] [%]	PLCγ2-HiBit %, percent luminescence at highest dose compared to control (DMSO) [6] [%]	PLCy2-HiBit % @100 [6] [%]	Papp, MDCK permeability [7]	Clint, intrinsic clearance [8] [µL/min/mg]	HiBit only %, percent luminescence at highest dose with HiBit only compared to control (DMSO) ([9]; 100 μM) [%]	HiBit only % @100 μM ([9]; Table 1, @100 μM) [%]	IC50 ([10]; read-out: cell count (inhibition of cell proliferation) IC50) [µM]	EC50 ([10]; read-out: increase of nuclear intensity EC50) [µM]	IC50 ([10]; read-out: inhibition of phagocytosis IC50) [µM]
clear separation from background signal	Nc1ncnc2c1ncn2[C@@H]1O[C@H](COP(=O)(O)OP(=O)(O)OP(=O)(O)O)[C@@H](O)[C@H]1O [ATP]	–	–	–	–	–	–	–	–	–	–	–	–	–	–	–
–	Cc1cc(C)c(S(=O)(=O)Nc2cccc(C#N)c2)c(C)c1 [Compound 3]	0.0003	79	111	81 to 100	85	113	96	96	69.8 ×10−^6 cm/s	–	–	–	–	–	–
–	O=S(=O)(Nc1cccc(C(F)(F)F)c1)c1ccccc1 [Compound 4]	–	84	89	>100	95	106	65	65	79.7 ×10−^6 cm/s	607.66	82	82	–	–	–
–	C=C1[C@@H](C)[C@H]2[C@H](Cc3ccccc3)NC(=O)[C@]23[C@H](OC(C)=O)/C=C/[C@@](C)(O)C(=O)[C@@H](C)C/C=C/[C@H]3[C@@H]1O [Cytochalasin D]	–	–	–	–	–	–	–	–	–	–	–	–	0.367	0.488	0.138
